Values of other authors, collected in patent US6761903B2, “Clear oil-containing pharmaceutical compositions containing a therapeutic agent” (Lipocine, Inc., priority 1999, dated 2004).

details: as reported by the manufacturer of the commercial product, rough average or inventors' judgment

Compound | HLB
1,2 and 1,3-diolein [1,2 and 1,3-diolein (C18:1)] | <10
CCCCC/C=C\C/C=C\CCCCCCCC(=O)OCC [Ethyl linoleate] | <10
CCCCCCCC/C=C\CCCCCCCC(=O)OCC [Ethyl oleate] | <10
CCCCC/C=C\C/C=C\CCCCCCCC(=O)OCC(O)CO (stereo not shown) [Glycerol monolinoleate] | 3-4
CCCCCCCCCCCCCCCC(=O)OCC(O)CO (stereo not shown) [Glycerol monopalmitate] | 4
CCCCCCCCCCCCCCCCCC(=O)OCC(O)CO (stereo not shown) [Glycerol monostearate] | 5-9
CC(=O)OCC(O)CO (stereo not shown) [Glyceryl acetate] | <10
CCCCCCCC(=O)OCC(O)CO (stereo not shown) [Glyceryl caprylate] | 5-6
CCCCCCCCCCCC(=O)OCC(O)CO (stereo not shown) [Glyceryl laurate] | 4
CCCCCCCCCCCC(=O)OCC(O)CO (stereo not shown) [Glyceryl monolaurate] | 6.8
CCCCCCCCCCCCCC(=O)OCC(O)CO (stereo not shown) [Glyceryl monomyristate (C14), Glyceryl monomyristate] | 3-4
CCCCCCCC/C=C\CCCCCCCC(=O)OCC(O)CO (stereo not shown) [Glyceryl monooleate (C18:1), Glyceryl monooleate] | 3-4
CCCCCCCCCCCCCCCCCC(=O)OCC(O)CO (stereo not shown) [Glyceryl monostearate] | 4.4
CCCCCC[C@@H](O)C/C=C\CCCCCCCC(=O)OCC(O)CO (stereo partly shown) [Glyceryl ricinoleate] | 6
CCCCC/C=C\C/C=C\CCCCCCCC(=O)OC(C)C [Isopropyl linoleate] | <10
CCCCCCCCCCCCCC(=O)OC(C)C [Isopropyl myristate] | <10
CCCCCCCCCC(=O)OCC(O)CO (stereo not shown) [Monocaprin] | <10
CCCCCC(=O)OCC(O)CO (stereo not shown) [Monocaproin (C6), Monocaproin] | <10
CCCCCCCC(=O)OCC(O)CO (stereo not shown) [Monocaprylin] | <10
CCCCCCCC/C=C/CCCCCCCC(=O)OCC(O)CO (stereo not shown) [Monoelaidin (C18:1), Monoelaidin] | <10
CCCCCCCCCCCC(=O)OCC(O)CO (stereo not shown) [Monolaurin] | <10
CCCCCC/C=C\CCCCCCCC(=O)OCC(O)CO (stereo not shown) [Monopalmitolein (C16:1), Monopalmitolein] | <10
CCCCCCCCCCCCCCCCCC(=O)OCCO [PEG-1 stearate] | 2
CCCCCCCCCCCCOCCOCCOCCOCCO [PEG-4 lauryl ether] | 9.7

Compound | HLB
CCCCCCCCCCCCCCCCCC(=O)OCC(CO)(CO)COC(=O)CCCCCCCCCCCCCCCCC [Pentaerythrityl distearate] | <10
CCCCCCCC/C=C\CCCCCCCC(=O)OCC(COC(=O)CCCCCCC/C=C\CCCCCCCC)(COC(=O)CCCCCCC/C=C\CCCCCCCC)COC(=O)CCCCCCC/C=C\CCCCCCCC [Pentaerythrityl tetraoleate] | <10
CCCCCCCCCCCCCCCCCC(=O)OCC(COC(=O)CCCCCCCCCCCCCCCCC)(COC(=O)CCCCCCCCCCCCCCCCC)COC(=O)CCCCCCCCCCCCCCCCC [Pentaerythrityl tetrastearate] | <10
CCCCCCCCCC(=O)OCC(C)OC(=O)CCCCCCCCC (stereo not shown) [Propylene glycol dicaprate] | >6
CCCCCCCCCCCC(=O)OCC(C)OC(=O)CCCCCCCCCCC (stereo not shown) [Propylene glycol dilaurate] | >6
CCCCCCCC(=O)OCC(C)OC(=O)CCCCCCC (stereo not shown) [Propylene glycol dioctanoate] | >6
CCCCCCCCCCCCCCCCCC(=O)OCC(C)OC(=O)CCCCCCCCCCCCCCCCC (stereo not shown) [Propylene glycol distearate] | >6
CCCCCCCCCCCCOS(=O)(=O)[O-].[Na+] [Sodium lauryl sulfate (dodecyl), Sodium lauryl sulfate] | 40
CCCCCCCC/C=C\CCCCCCCC(=O)[O-].[Na+] [Sodium oleate] | 18
Caprylic/capric glycerides | <10
Dicaprin [Dicaprin (C10)] | <10
Dicaproin [Dicaproin (C6)] | <10
Dielaidin [Dielaidin (C18:1)] | <10
Dilinolein [Dilinolein (C18:2)] | <10
Dimyristin [Dimyristin (C14)] | <10
Dioctanoin [Dioctanoin (C8)] | <10
Dipalmitin [Dipalmitin (C16)] | <10
Dipalmitolein [Dipalmitolein (C16:1)] | <10
Distearin | <10
Glycerol monooleate/linoleate | 3-4
Glyceryl citrate/lactate/oleate/linoleate | <10
Glyceryl dilaurate [Glyceryl dilaurate (C12)] | 3-4
Glyceryl dioleate | 3-4
Glyceryl mono-, dioleate | <10

Compound | HLB
Glyceryl palmitic/stearic | <10
PEG 4-100 monolaurate | >9
PEG 4-100 monooleate | >8
PEG 4-100 monostearate | >6
PEG 100,200,300 monolaurate | >10
PEG 100,200,300 monooleate | >10
PEG 400 dioleate | >10
PEG 400 distearate | >10
PEG 400-1000 monostearate | >10
PEG-2 oleate | 4.5
PEG-2 stearate | 4
PEG-3 oleyl ether | <10
PEG-4 dilaurate | 7
PEG-4 dioleate | 6
PEG-4 distearate | 5
PEG-4 oleate | 8.3
PEG-4 stearate | 6.5
PEG-5 oleate | 9.5
PEG-5 oleyl ether | <10
PEG-5 soya sterol | <10
PEG-5 stearate | 9.5
PEG-6 dilaurate | 9.8
PEG-6 dioleate | 7.2
PEG-6 distearate | 6.5

Compound | HLB
PEG-6 sorbitan monostearate | 11
PEG-6 stearate | 9.7
PEG-7 oleate | 10.4
PEG-8 dioleate | 8.8
PEG-9 oleate | >10
PEG-9 stearate | >10
PEG-10 dipalmitate | >10
PEG-10 soya sterol | <10
PEG-12 dilaurate | 11.7
PEG-12 dioleate | 10
PEG-12 distearate | 10.7
PEG-12 oleate | 14
PEG-12 ricinoleate | >10
PEG-12 stearate | 14
PEG-15 stearate | 14
PEG-20 glyceryl oleate | >10
PEG-20 soya sterol | <10
PEG-24 cholesterol ether | >10
PEG-25 phyto sterol | >10
PEG-30 cholestanol | >10
PEG-30 glyceryl oleate | >10
PEG-30 soya sterol | >10
PEG-30 stearate | >10
PEG-40 oleate | 17.4

Compound | HLB
PEG-40 stearate | >10
PEG-50 stearate | >10
PEG-100 oleate | 18.8
PEG-100 stearate | 19
PEG-200 oleate | >10
PEG-400 dioleate | >10
PEG-400 distearate | >10
PEG-400 oleate | >10
PEG-600 oleate | >10
Pentaerythrityl tetracaprylate/tetracaprate | <10
Pentaerythrityl tetraisostearate | <10
Phytosterol | <10
Polyglyceryl-2 dioleate | 7
Polyglyceryl-2 isostearate | 5-7
Polyglyceryl-2 oleate | 5-7
Polyglyceryl-2 stearate | 5-7
Polyglyceryl-3 dioleate | <10
Polyglyceryl-3 distearate | <10
Polyglyceryl-3 oleate | 6.5
Polyglyceryl-4 oleate | 5-7
Polyglyceryl-4 pentaoleate | <10
Polyglyceryl-4 stearate | 5-6
Polyglyceryl-6 oleate | 9
Polyglyceryl-6 pentaoleate | <10

Compound | HLB
Polyglyceryl-6 ricinoleate | >8
Polyglyceryl-10 decaisostearate | <10
Polyglyceryl-10 mono, dioleate | 11
Polyglyceryl-10 oleate | 14
Polyglyceryl-10 pentaoleate | 3.5
Polyglyceryl-10 septaoleate | 3
Polyglyceryl-10 tetraoleate | 6.2
Polyglyceryl-10 trioleate | 7
Polyglyceryl-101 decaoleate | 3.5
Propylene glycol dicaprylate/dicaprate | >6
Sorbitan monoisostearate | 4.7
Sorbitan monooleate | 4.3
Sorbitan monopalmitate | 6.7
Sorbitan monostearate | 4.7
Sorbitan sesquistearate | 4.2
Sorbitan trioleate | 4.3
Sucrose dipalmitate | 7.4
Sucrose distearate | 3
Sucrose monopalmitate | >10
